Laboratory results published in ChEMBL document CHEMBL1144438, “Dipeptidyl peptidase IV inhibitors derived from beta-aminoacylpiperidines bearing a fused thiazole, oxazole, isoxazole, or pyrazole” (Bioorg Med Chem Lett, 2005).
Each block holds one compound with its values, some of them ahead of it.

Assays:
[1] = target: Dipeptidyl peptidase 8 (Homo sapiens, UniProt Q6V1X1); test: Inhibitory concentration against human dipeptidylpeptidase 8
[2] = target: Dipeptidyl peptidase 9 (Homo sapiens, UniProt Q86TI2); test: Inhibitory concentration against human dipeptidylpeptidase 9
[3] = Oral bioavailability of compound in rats dosed at 2 mg/kg p.o.; format: ADME, organism-based; settings: rat, in vivo
[4] = Plasma clearance of compound in rats dosed at 1 mg/kg i.v.; format: ADME, organism-based; set-up: dose 1 mg/kg, route intravenous; settings: rat, iv
[5] = Half-life of compound in rats dosed at 1 mg/kg i.v.; format: ADME, organism-based; set-up: dose 1 mg/kg, route intravenous; settings: rat, in vivo, iv
[6] = target: Dipeptidyl peptidase 2 (Homo sapiens, UniProt Q9UHL4); test: Inhibitory concentration against human dipeptidylpeptidase VII (QPP)

Dipeptidyl peptidase 9, sequence (Q86TI2 whole entry): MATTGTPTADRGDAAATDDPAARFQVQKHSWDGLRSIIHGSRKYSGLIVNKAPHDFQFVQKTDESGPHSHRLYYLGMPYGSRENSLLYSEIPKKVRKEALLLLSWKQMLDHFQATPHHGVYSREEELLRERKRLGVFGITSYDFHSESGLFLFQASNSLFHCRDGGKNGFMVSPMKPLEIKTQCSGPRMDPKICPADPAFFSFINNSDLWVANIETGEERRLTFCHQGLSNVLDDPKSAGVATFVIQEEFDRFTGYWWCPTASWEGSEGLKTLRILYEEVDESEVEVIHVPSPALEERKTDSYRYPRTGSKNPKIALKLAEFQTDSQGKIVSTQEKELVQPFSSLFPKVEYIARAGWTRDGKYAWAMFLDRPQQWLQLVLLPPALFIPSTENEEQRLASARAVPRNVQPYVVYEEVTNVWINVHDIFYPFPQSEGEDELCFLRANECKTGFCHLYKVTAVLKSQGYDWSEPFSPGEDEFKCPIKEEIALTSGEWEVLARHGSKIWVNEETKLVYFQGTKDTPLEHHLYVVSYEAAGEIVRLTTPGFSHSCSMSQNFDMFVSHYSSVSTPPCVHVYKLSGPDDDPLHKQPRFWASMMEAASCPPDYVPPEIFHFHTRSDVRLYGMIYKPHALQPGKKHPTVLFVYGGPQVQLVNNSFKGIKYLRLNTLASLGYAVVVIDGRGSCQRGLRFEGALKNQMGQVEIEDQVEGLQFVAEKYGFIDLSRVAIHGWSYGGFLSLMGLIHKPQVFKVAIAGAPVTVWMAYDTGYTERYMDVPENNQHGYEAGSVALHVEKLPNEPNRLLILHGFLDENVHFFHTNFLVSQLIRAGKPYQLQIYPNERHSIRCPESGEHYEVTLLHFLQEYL
Dipeptidyl peptidase 8, sequence (Q6V1X1 whole entry): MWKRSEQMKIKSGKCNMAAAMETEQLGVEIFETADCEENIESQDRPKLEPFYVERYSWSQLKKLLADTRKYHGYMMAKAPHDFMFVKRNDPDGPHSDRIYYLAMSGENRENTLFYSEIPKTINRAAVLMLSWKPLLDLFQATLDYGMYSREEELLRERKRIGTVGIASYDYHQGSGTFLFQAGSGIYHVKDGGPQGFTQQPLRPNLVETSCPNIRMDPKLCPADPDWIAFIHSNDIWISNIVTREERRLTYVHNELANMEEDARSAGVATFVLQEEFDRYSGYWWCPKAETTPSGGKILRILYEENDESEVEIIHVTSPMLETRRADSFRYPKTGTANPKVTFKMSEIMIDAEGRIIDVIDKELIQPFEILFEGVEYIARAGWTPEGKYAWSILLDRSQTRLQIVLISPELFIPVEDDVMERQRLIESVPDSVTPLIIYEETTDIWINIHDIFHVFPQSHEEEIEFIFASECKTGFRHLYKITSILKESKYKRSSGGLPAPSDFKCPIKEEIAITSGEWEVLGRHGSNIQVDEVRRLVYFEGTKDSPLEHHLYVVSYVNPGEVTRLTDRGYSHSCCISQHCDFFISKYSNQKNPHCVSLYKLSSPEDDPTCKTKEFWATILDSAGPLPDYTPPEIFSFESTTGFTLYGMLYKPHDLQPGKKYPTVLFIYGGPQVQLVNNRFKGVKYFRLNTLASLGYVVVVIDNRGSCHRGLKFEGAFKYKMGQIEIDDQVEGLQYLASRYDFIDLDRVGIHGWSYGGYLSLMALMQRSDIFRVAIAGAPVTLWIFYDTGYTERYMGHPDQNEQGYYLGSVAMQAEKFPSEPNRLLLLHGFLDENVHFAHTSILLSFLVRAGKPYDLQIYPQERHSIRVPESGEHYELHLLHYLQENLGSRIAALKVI

IC50 [1]: > 100 µM
IC50 [2]: > 100 µM
SMILES: Cn1nc2c(c1C(F)(F)F)CN(C(=O)C[C@H](N)Cc1cc(F)ccc1F)CC2

IC50 [2]: > 100 µM
SMILES: Cn1nc(-c2ccc(F)cc2)c2c1CCN(C(=O)C[C@H](N)Cc1cc(F)ccc1F)C2

IC50 [1]: > 100 µM
IC50 [2]: > 100 µM
SMILES: N[C@@H](CC(=O)N1CCc2nn(CC(F)(F)F)c(C(F)(F)F)c2C1)Cc1cc(F)ccc1F

bioavailability [3]: 55%
clearance [4]: 91 mL/min/kg
half-life [5]: 3.3 h
SMILES: N[C@@H](CC(=O)N1CCc2sc(-c3ccc(F)cc3)nc2C1)Cc1cc(F)ccc1F

IC50 [2]: > 100 µM
SMILES: Cn1nc(C(F)(F)F)c2c1CCN(C(=O)C[C@H](N)Cc1cc(F)ccc1F)C2

IC50 [6]: > 100 µM
SMILES: N[C@@H](CC(=O)N1CCc2c(noc2C(F)(F)F)C1)Cc1cc(F)ccc1F

IC50 [2]: > 100 µM
SMILES: N[C@@H](CC(=O)N1CCc2c(c(C(F)(F)F)nn2CC(F)(F)F)C1)Cc1cc(F)ccc1F

bioavailability [3]: 20%
clearance [4]: 60 mL/min/kg
half-life [5]: 1.5 h
SMILES: CS(=O)(=O)c1ccc(-c2nc3c(s2)CCN(C(=O)C[C@H](N)Cc2cc(F)ccc2F)C3)cc1

IC50 [6]: > 100 µM
IC50 [2]: > 100 µM
SMILES: N[C@@H](CC(=O)N1CCc2oc(C3CC3)nc2C1)Cc1cc(F)ccc1F

IC50 [2]: > 100 µM
SMILES: Cn1nc2c(c1-c1ccc(F)cc1)CN(C(=O)C[C@H](N)Cc1cc(F)ccc1F)CC2

bioavailability [3]: 16%
IC50 [2]: > 100 µM
clearance [4]: 250 mL/min/kg
half-life [5]: 2 h
SMILES: N[C@@H](CC(=O)N1CCc2sc(C(F)(F)F)nc2C1)Cc1cc(F)ccc1F

IC50 [1]: > 100 µM
IC50 [2]: > 100 µM
SMILES: N[C@@H](CC(=O)N1CCc2noc(C(F)(F)F)c2C1)Cc1cc(F)ccc1F

IC50 [1]: > 100 µM
IC50 [2]: > 100 µM
SMILES: N[C@@H](CC(=O)N1CCCc2n[nH]c(C(F)(F)F)c21)Cc1cc(F)ccc1F

IC50 [1]: > 100 µM
IC50 [2]: > 100 µM
SMILES: Cn1nc2c(c1C(F)(F)C(F)(F)F)CN(C(=O)C[C@H](N)Cc1cc(F)ccc1F)CC2

IC50 [2]: > 100 µM
SMILES: Cn1nc(C(F)(F)C(F)(F)F)c2c1CCN(C(=O)C[C@H](N)Cc1cc(F)ccc1F)C2

IC50 [2]: > 100 µM
SMILES: Cn1nc2c(c1C(F)(F)F)CCN(C(=O)C[C@H](N)Cc1cc(F)ccc1F)C2

IC50 [2]: > 100 µM
SMILES: N[C@@H](CC(=O)N1CCc2n[nH]c(C(F)(F)C(F)(F)F)c2C1)Cc1cc(F)ccc1F (stereo in doubt; form 1)

IC50 [2]: > 100 µM
SMILES: N[C@@H](CC(=O)N1CCc2n[nH]c(C(F)(F)C(F)(F)F)c2C1)Cc1cc(F)ccc1F (stereo in doubt; form 2)
